Results on seven compounds are retold here after ChEMBL document CHEMBL1201862, “PubChem BioAssay data set” (2004).

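Step 1: Grow cells in 96-well plates. Step 2: Expose to compound for 48 hours at 5 concentrations. Step 3: Interpolate endpoints linearly; if unreached, use highest concentration. GI50 marks 50% less growth.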 Activity calls are given as the source filed them. Cut-off read from the data, not from the text of the source: active = GI50 up to about 1.1 µM and inactive = higher. Some results are limits rather than exact numbers.

Test in all cases: inhibition of tumour cell growth, NCI panel, 48 h
The subject of experiment [1] is MDA-MB-435.
In experiment [2] the test system is Malme-3M.
Experiment [3] deals with K562.
In experiment [4] the test system is CAKI-1.
In experiment [5] the test system is NCI-H522.
Experiment [6] relates to SF-295.
Experiment [7] has as its system M14.
Experiment [8] relates to HCT-15.
Experiment [9] deals with KM12.
For experiment [10], the system named is CCRF-CEM.
Experiment [11] relates to MOLT-4.
Experiment [12] deals with U-251.
Experiment [13] concerns SR.
Experiment [14] concerns HCT-116.
Experiment [15] concerns ACHN.
The subject of experiment [16] is TK-10.
The test system of experiment [17] is RPMI-8226.
Experiment [18] concerns 786-0.
In experiment [19] the test system is UACC-257.
Experiment [20] deals with OVCAR-4.

As to `CC12C(=O)OC(=O)C1(C)C1C=CC2O1` (centres undefined), the GI50 in [1] was > 100 µM (inactive); in experiment [2], 67.6 µM (inactive); in experiment [3], > 100 µM (inactive); in experiment [4] it was 54.7 µM (inactive); in experiment [5], > 100 µM (inactive); in [6] it was 62.8 µM (inactive). Besides, the GI50 in experiment [7] is 64.9 µM (inactive); in [8], over 100 µM; in [9], > 100 µM (inactive); in experiment [10], > 100 µM (inactive); in [11], > 100 µM (inactive); in [12] it was > 100 µM (inactive). The GI50 in [13] was > 100 µM (inactive); in experiment [14], > 100 µM (inactive); in experiment [15], > 100 µM (inactive); in experiment [16], 78.7 µM (inactive); in [17], > 100 µM (inactive); in [18] it was > 100 µM (inactive). In addition, the GI50 in [19] is > 100 µM (inactive).
As to `O=C1/C(=C/c2ccc(Cl)cc2)Sc2scc(-c3cccc([N+](=O)[O-])c3)[n+]21`, the GI50 is 3.4 µM (inactive) in [1]; 0.459 µM (active) in experiment [3]; 3.01 µM (inactive) in experiment [4]; 0.44 µM (active) in experiment [5]; 11.4 µM (inactive) in [6]; 3.57 µM (inactive) in experiment [7]. Moreover, the GI50 in experiment [8] was 1.9 µM; in experiment [9] it was 2.89 µM (inactive); in [10] it was 0.259 µM (active); in [20], 6.97 µM (inactive); in [11], 2.04 µM (inactive); in experiment [12] it was 4.55 µM (inactive). In addition, the GI50 in experiment [13] is 0.296 µM (active); in [14], 2.06 µM (inactive); in experiment [15] it was 2.49 µM (inactive); in [16] it was 2.13 µM (inactive); in [17], 1.39 µM (inactive); in experiment [18], 2.16 µM (inactive). The GI50 in experiment [19] was 4.61 µM (inactive).
As to `COC(=O)C(CCCCNC(=O)CNC(=O)OCc1ccccc1)NC(=O)C(CCCCNC(=O)CNC(=O)OCc1ccccc1)NC(=O)OCc1ccccc1` (centres undefined), the GI50 was 19.8 µM (inactive) in [1]; 46.2 µM (inactive) in experiment [2]; > 100 µM (inactive) in experiment [3]; > 100 µM (inactive) in experiment [4]; > 100 µM (inactive) in experiment [7]; over 100 µM in experiment [8]. The GI50 in experiment [10] was 42.8 µM (inactive); in experiment [20] it was 29.2 µM (inactive); in experiment [11], 33.4 µM (inactive); in experiment [12], 54 µM (inactive); in experiment [13] it was 41.8 µM (inactive); in experiment [14], 84.7 µM (inactive). Further, the GI50 in experiment [15] is > 100 µM (inactive); in experiment [16], > 100 µM (inactive); in [17], 20.4 µM (inactive); in experiment [18] it was 25 µM (inactive); in experiment [19], > 100 µM (inactive).
For the compound `O=C1OCc2c1cc1cc3c(cc1c2-c1ccc2c(c1)OCO2)OCO3.O=C1OCc2cc3cc4c(cc3c(-c3ccc5c(c3)OCO5)c21)OCO4`, the GI50 is 1.87 µM (inactive) in [1]; 37.2 µM (inactive) in experiment [2]; 0.979 µM (active) in experiment [3]; 11.8 µM (inactive) in experiment [4]; 2.41 µM (inactive) in experiment [6]; 4.47 µM (inactive) in experiment [7]. Also, the GI50 in experiment [8] is 6.18 µM; in [9], 11.1 µM (inactive); in experiment [10], 3.34 µM (inactive); in [20], 18 µM (inactive); in experiment [11] it was 2.31 µM (inactive); in experiment [12], 13.2 µM (inactive). For the same compound, the GI50 in experiment [13] is 5.7 µM (inactive); in [14] it was 2.76 µM (inactive); in [16] it was 14.4 µM (inactive); in experiment [17] it was 4.31 µM (inactive); in experiment [19], 25.5 µM (inactive).
`O=C1CC(C(COCc2ccccc2)OCc2ccccc2)CC(=O)N1` (centres undefined): the GI50 in experiment [1], in experiment [2], in experiment [3], in experiment [4], in experiment [5] and in experiment [6] was > 100 µM (inactive) each time. Besides, the GI50 in experiment [7] is > 100 µM (inactive); in experiment [8], over 100 µM; in experiment [9], > 100 µM (inactive); in [10], > 100 µM (inactive); in experiment [11], > 100 µM (inactive); in experiment [12], > 100 µM (inactive). For the same compound, the GI50 in experiment [13], in experiment [14], in [15], in experiment [16], in experiment [17] and in [18] was > 100 µM (inactive) in each case. Also, in experiment [19], the GI50 is > 100 µM (inactive).
Take `C=C1C[C@@H]2CC[C@@]34CC5O[C@H]6C(O[C@H]7CC[C@H](CC(=O)O[C@@H]8[C@@H](C)[C@@H]9O[C@@H]%10C[C@]%11(C[C@@H]%12O[C@]%13(C[C@H](C)[C@@H]%14O[C@@H]%15CC(C(COC(C)=O)OC(C)=O)O[C@@H]%15C[C@@H]%14O%13)C[C@H](C)[C@@H]%12O%11)O[C@@H]%10C[C@@H]9O[C@H]8CC8O[C@@H](CC[C@@H]1O2)C[C@@H](C)C8(O)CO)O[C@@H]7[C@@H]6O3)[C@H]5O4` (some centres undefined): the GI50 in experiment [1] is 0.0826 µM (active); in [3] it was 0.513 µM (active); in experiment [4], 0.652 µM (active); in experiment [5], 0.137 µM (active); in [6], 0.297 µM (active); in experiment [7] it was 0.587 µM (active). Also, the GI50 in [8] is 0.527 µM; in [9] it was 0.327 µM (active); in experiment [10] it was 0.995 µM (active); in experiment [20] it was > 1 µM (active); in experiment [11] it was > 0.548 µM (active); in experiment [12], 0.436 µM (active). Further, the GI50 was 0.117 µM (active) in experiment [13]; 0.292 µM (active) in experiment [14]; 0.708 µM (active) in experiment [15]; > 0.36 µM (active) in experiment [16]; 0.413 µM (active) in experiment [17]; 0.392 µM (active) in experiment [18]. Besides, in experiment [19], the GI50 was 0.0716 µM (active).
As for `Cc1ccc(/C=C/C(=O)c2cc(CN(C)C)c(O)c(CN(C)C)c2)cc1`, the GI50 was 21.4 µM (inactive) in experiment [1]; 18.3 µM (inactive) in experiment [2]; 13.8 µM (inactive) in experiment [3]; 20.7 µM (inactive) in experiment [4]; 14.8 µM (inactive) in experiment [5]; 13.8 µM (inactive) in [6]. In addition, the GI50 was 15.8 µM (inactive) in [7]; 14.4 µM in [8]; 12.1 µM (inactive) in experiment [9]; 14.4 µM (inactive) in [10]; 16 µM (inactive) in [11]; 21.9 µM (inactive) in experiment [12]. For the same compound, the GI50 was 18.2 µM (inactive) in experiment [13]; 15.5 µM (inactive) in experiment [14]; 12.1 µM (inactive) in experiment [15]; 28.8 µM (inactive) in experiment [16]; 13.2 µM (inactive) in [17]; 27.2 µM (inactive) in experiment [18]. Moreover, the GI50 in [19] was 13.8 µM (inactive).
